Source: patent publication US9073868B2, “Benzazepine derivatives useful as vasopressin antagonists” (Otsuka Pharmaceutical Co., Ltd., priority 2007, dated 2015)

How the values were obtained:
[1] = Test Example 1: oral absorption in rats, serum concentrations of tolvaptan after oral suspension; format: in vivo; details: male rats deprived of food about 18 hours, forced oral administration of suspension, 1 mg of tolvaptan per kg, Mean ± S.D. (n = 3 or 4)
Procedure: The compounds obtained in Examples 1, 50, and 52 were used as test compounds.
Each test compound, (Examples 1, 50, and 52) equivalent to 10 mg of tolvaptan, and hypromellose (125 mg) were suspended in 25 ml of water for injection in a porcelain mortar, to thereby obtain a suspension equivalent to 0.4 mg of tolvaptan per ml of suspension.
A spray-dried tolvaptan powder equivalent to 60 mg of tolvaptan, which was prepared in a similar manner to Example 3 of Japanese Unexamined Patent Publication No. 1999-21241, was suspended in 50 ml of water for injection in a porcelain mortar. This suspension was diluted three-fold with water for injection, preparing a suspension of spray-dried powder equivalent to 0.4 mg of tolvaptan per ml of suspension.
The following tests were conducted to examine the oral absorption features of each suspension. Male rats (body weight: about 180 g) that had been deprived of food for about 18 hours were used as test animals. The above suspensions were each administered by forced oral administration using a sonde for oral administration at a dose of 2.5 ml/kg of body weight, producing 1 mg of tolvaptan per kg of body weight. The blood samples were collected from the jugular vein under light diethyl ether anesthesia at the time of 0.5 hour, 1 hour, 2 hours, 4 hours, 6 hours, and 8 hours later after dosing. The serum concentrations of tolvaptan (ng/ml) were determined by using UPLC-MS/MS (Waters).
The average phaLmacokinetic parameters were calculated from the results.

[2] = Test Example 2: oral absorption in rats, serum concentrations of tolvaptan after oral solution or suspension; format: in vivo; details: rat, male rats fasted about 18 hours, forced oral administration of suspension or solution, 1 mg of tolvaptan per kg, Mean ± S.D. (n = 4)
Procedure: The compounds obtained in Examples 74 was used as test compounds.
The test compound, (Examples 1) equivalent to 10 mg of tolvaptan, and hydroxypropylcellulose (5 mg) was dissolved in 25 ml of water for injection in a porcelain mortar, to thereby obtain a solution equivalent to 0.4 mg of tolvaptan per ml.
A spray-dried tolvaptan powder equivalent to 10 mg of tolvaptan was suspended in 25 ml of water for injection in a porcelain mortar, to obtain a suspension of spray-dried powder equivalent to 0.4 mg of tolvaptan per ml of suspension.
The following tests were conducted to examine the oral absorption features of each suspension and solution. Male rats (body weight: about 160 g) that had been fasted for about 18 hours were used as test animals. The above suspension or solution were each administered by forced oral administration using a sonde for oral administration at a dose of 2.5 ml/kg of body weight, producing 1 mg of tolvaptan per kg of body weight. The blood samples were collected from the jugular vein under light diethyl ether anesthesia at the time of 0.5 hour, 1 hour, 2 hours, 3 hours, 4 hours, 6 hours, 8 hours and 10 hours later after dosing. The serum concentrations of tolvaptan (ng/ml) were determined by using UPLC-MS/MS (Waters).
The average pharmacokinetic parameters were calculated from the results.

AUC(0-inf) [2] [ng·h/mL] | Cmax [2] [ng/mL] | MRT inf [2] [h] | Tmax [2] [h] | AUC(0-inf) ([1]; rat) [ng·h/mL] | MRT inf ([1]; rat) [h] | Cmax ([1]; rat, read-out: Cmax) [ng/mL] | Tmax ([1]; rat, read-out: Tmax) [h] | SMILES | AUC∞ [1] [ng·h/mL] | Cmax [1] [ng/mL] | MRT∞ [1] [h] | Tmax [1] [h]
 |  |  |  |  |  |  |  | Cc1ccccc1C(=O)Nc1ccc(C(=O)N2CCCC(OC(=O)CCC(=O)O)c3cc(Cl)ccc32)c(C)c1 (stereo not drawn) [Example 1, {7-Chloro-1-[2-methyl-4-(2-methyl-benzoylamino)-benzoyl]-2,3,4,5-tetrahydro-1H-benzo[b]azepin-5-yl} Succinate] | 96.1 ± 18.1 | 16.2 ± 4.8 | 4.45 ± 0.64 | 2.00 ± 0.00
92.4 ± 27 | 26.9 ± 11.6 | 2.96 ± 0.47 | 1 | 80.9 ± 28.5 | 2.95 ± 0.35 | 26.4 ± 12.9 | 1.5 ± 0.58 | Cc1ccccc1C(=O)Nc1ccc(C(=O)N2CCCC(O)c3cc(Cl)ccc32)c(C)c1 (stereo not drawn) [Tolvaptan] |  |  |  | 
